Earlier results on 2 compounds are cited in patent publication US7198928B2, “Human COX-1 alternatively spliced variants and methods of using same” (Allergan, Inc., priority 2003, dated 2007).

The conditions of data set [1]: humans treated with rofecoxib, in comparison with patients receiving naproxen.
The test system of data set [2] is COX-1. The conditions noted are these: human iris vs human blood.

Take `CS(=O)(=O)c1ccc(C2=C(c3ccccc3)C(=O)OC2)cc1` [rofecoxib]: the thrombotic cardiovascular events result in data set [1] is “significant increase in thrombotic cardiovascular events”.

In the case of `C[C@H](C(=O)O)c1ccc(-c2ccccc2)c(F)c1` [S(+)flurbiprofen], the “potency of COX-1 inhibition in human iris relative to human blood” value in data set [2] is given as 70 fold.
